This is an account of results in patent US20130059879A1, “Small Molecule Inhibitors of PFKFB3 and Glycolytic Flux and Their Methods of Use as Anti-Cancer Therapeutics” (UNIVERSITY OF LOUISVILLE RESEARCH FOUNDATION, INC., priority 2010, published 2013).

Structures can show the parent of a compound that is named as a salt. Where two headings read alike, the source gives them in different places.

The nature of data set [1]: Microsomal stability in human liver microsomes. The class given is in vitro ADME. As to the method: Microsomal stability in vitro in different biologic media (liver microsomes, S9 fraction, hepatocytes) and species is ascertained to evaluate the rate at which a compound undergoes metabolism in the experimental in vitro conditions. Results for some compounds of the invention after a 60 minutes incubation period in human liver microsomes are shown in the Table 6 below. […] Experimental conditions are briefly described here: the stability in human liver microsomes of several compounds was done over […] at 37° C. using pooled mixed gender human liver microsomes. These liver microsomes were prepared at 1.0 mg/ml of microsomal protein in a 100 mM potassium phosphate pH 7.4 buffer with 1 mM NADPH. The media was incubated at 37° C. with the compound in solution in DMSO. The concentration of the compound was followed by LC/MS-MS as a function of time. Samples were assayed at t=0, 15, 30, and 60 minutes. Testosterone was used as a positive control. The same experiment was performed with mouse, rat or dog liver microsomes instead of human liver microsomes.

For the next data set, the system named is Calu-6. Briefly: Cancer cell proliferation, Alamar Blue assay, 72 hours. The class given is cell-based. The procedure:
(§1) The ability of the compounds described herein to kill or inhibit the proliferation of cancer cells was measured using either the MTT assay, or the Alamar Blue assay, or the Cell Titer Glow® assay using 48 or 72 hours exposure. […] The procedures are briefly described below. Cells of the desired tumor cell line were plated at 2×10^5 cells/ml in 96 well plates. Twice the indicated concentrations of the compounds of the invention were added to cells the following day in an equal volume of media. 72 hours later, cells were lysed and subjected to ATP determination using the CellTiter Glo-Luminescent Cell Viability Assay kit (Promega, Madison, Wis.). Experiments were done in triplicate. When using the MTT assay or the Alamar blue assay, the experimental conditions are essentially similar; at the end of the incubation period, 20 microliters of the MTT solution is added per well and the samples are incubated for an additional four hours, rinsed, and the absorbance at 570 nm measured. […] Table 2 lists the IC50 values for the compounds of the invention in several cell lines including Jurkat, Calu-6, NCI-H82, U937, HCT-116, and MDA-MB-231 cancer cell lines.

Another data set has as its system HCT-116. Described as above. Type of data set: cell-based. As to the method: as §1
In the next data set the test system is Jurkat. Described as above. Type of data set: cell-based. The procedure:
as §1

In another data set the test system is NCI-H82. The description is as above. The class given is cell-based. The procedure:
as §1

For another data set, the system named is U937. Described as above. The class given is cell-based. The procedure: as §1
A further data set has as its system MDA-MB-231. Described as above. The class given is cell-based. Particulars: Homo sapiens. The procedure: as §1
Setting [2] is: 60 min incubation, 1.0 mg/ml microsomal protein, 1 mM NADPH, 37° C.
The mark [3] stands for this setting: Homo sapiens, NCI-H82, read-out: IC50 NCl-H82.

As for `COc1ccc(C(=O)c2cc3c(ccc4ccccc43)[nH]2)cc1` [ACT-PFK-093, (3H-Benzo[e]indol-2-yl)-(4-methoxy-phenyl)-methanone], the “HLM, Mean metabolized (%)” value in data set [1] (0 min) came to 0.0%; in data set [1] (setting [2]) it was 95%.
Regarding `O=C(c1ccncc1)c1cc2c(ccc3ccccc32)[nH]1` [ACT-PFK-095HCl, HCl salt of (3H-Benzo[e]indol-2-yl)-pyridin-4-yl-methanone], the IC50 in the data set with Calu-6 came to 390 nM; in the data set on HCT-116, 850 nM; in the data set on Jurkat it was 440 nM; with NCI-H82 (read-out: IC50 NCl-H82) it was 305 nM; with U937, 20 nM.
`O=C(c1cc2c(ccc3ccccc32)[nH]1)c1ccccc1O` [ACT-PFK-099, (3H-Benzo[e]indol-2-yl)-(2-hydroxy-phenyl)-methanone]: the IC50 is 230 nM in the data set on Calu-6 (Homo sapiens, Calu-6); 495 nM in the data set on HCT-116 (Homo sapiens, HCT-116); 410 nM in the data set with Jurkat (Homo sapiens, Jurkat); 680 nM in the data set with NCI-H82 (setting [3]); 76 nM with U937 (Homo sapiens, U-937).
Regarding `Cc1cc2[nH]c(C(=O)c3ccccc3)cc2c2ccccc12` [ACT-PFK-101, (5-Methyl-3H-benzo[e]indol-2-yl)-phenyl-methanone], the IC50 in the data set with Calu-6 (Homo sapiens, Calu-6) was above 100000 nM; with Jurkat (Homo sapiens, Jurkat), above 100000 nM; with NCI-H82 (setting [3]), above 100000 nM; in the data set on U937 (Homo sapiens, U-937), above 100000 nM.
As to `O=C(c1ccccc1)c1cc2c(ccc3cccnc32)[nH]1` [ACT-PFK-102, Phenyl-(7H-pyrrolo[2,3-h]quinolin-8-yl)-methanone], the IC50 was above 100000 nM in the data set with Calu-6 (Homo sapiens, Calu-6); above 100000 nM with Jurkat (Homo sapiens, Jurkat); above 100000 nM with NCI-H82 (setting [3]); above 100000 nM in the data set with U937 (Homo sapiens, U-937).
As for `O=C(c1cccc(O)c1)c1cc2c(ccc3ccccc32)[nH]1` [ACT-PFK-103, (3H-Benzo[e]indol-2-yl)-(3-hydroxy-phenyl)-methanone], the IC50 stood at 130 nM in the data set on Calu-6 (Homo sapiens, Calu-6); 360 nM with HCT-116 (Homo sapiens, HCT-116); 110 nM with Jurkat (Homo sapiens, Jurkat); 6400 nM in the data set with MDA-MB-231; 405 nM in the data set with NCI-H82 (setting [3]).
`O=C(c1ccccc1)c1cc2c(cc(F)c3ccccc32)[nH]1` [ACT-PFK-104, (5-Fluoro-3H-benzo[e]indol-2-yl)-phenyl-methanone]: the IC50 in the data set with Calu-6 (Homo sapiens, Calu-6) stood at 200 nM; in the data set on HCT-116 (Homo sapiens, HCT-116), 320 nM; in the data set with Jurkat (Homo sapiens, Jurkat), 118 nM; in the data set on MDA-MB-231, 5950 nM; in the data set with NCI-H82 (setting [3]) it was 310 nM. For the same compound, the “HLM, Mean metabolized (%)” value is 0.0% in data set [1] (0 min) and 80% in data set [1] (setting [2]).
Consider `O=C(c1ccnc(Cl)c1)c1cc2c(ccc3ccccc32)[nH]1` [ACT-PFK-105, (3H-benzo[e]indol-2-yl)-(2-chloro-pyridin-4-yl)-methanone], for which the IC50 was determined as 140 nM in the data set with Calu-6 (Homo sapiens, Calu-6); 355 nM in the data set with HCT-116 (Homo sapiens, HCT-116); 115 nM in the data set with Jurkat (Homo sapiens, Jurkat); 7400 nM in the data set on MDA-MB-231; 395 nM in the data set with NCI-H82 (setting [3]); 70 nM in the data set with U937 (Homo sapiens, U-937). Further, the results for the “HLM, Mean metabolized (%)” value in data set [1] (0 min) and in data set [1] (setting [2]) were 0.0% and 51.4%, respectively.
Consider `O=C(c1cc[n+]([O-])cc1)c1cc2c(ccc3ccccc32)[nH]1` [ACT-PFK-106, (3H-benzo[e]indol-2-yl)-(1-oxy-pyridin-4-yl)-methanone], for which the IC50 with Calu-6 (Homo sapiens, Calu-6) was determined as 8900 nM; in the data set with HCT-116 (Homo sapiens, HCT-116) it was 38500 nM; in the data set on Jurkat (Homo sapiens, Jurkat), 21000 nM; in the data set on MDA-MB-231, 28000 nM; in the data set with NCI-H82 (setting [3]), 15000 nM; with U937 (Homo sapiens, U-937), 3150 nM.
Take `COC(=O)c1ccc(C(=O)c2cc3c(ccc4ccccc43)[nH]2)cc1` [ACT-PFK-110, 4-(3H-Benzo[e]indole-2-carbonyl)-benzoic acid methyl ester]: the IC50 was 59500 nM in the data set on Calu-6 (Homo sapiens, Calu-6); above 100000 nM with HCT-116 (Homo sapiens, HCT-116); above 100000 nM with Jurkat (Homo sapiens, Jurkat); above 100000 nM in the data set with MDA-MB-231; above 100000 nM with NCI-H82 (setting [3]); above 100000 nM in the data set on U937 (Homo sapiens, U-937).
Regarding `COC(=O)c1cc(C(=O)c2cc3c(ccc4ccccc43)[nH]2)ccc1OCc1ccccc1` [ACT-PFK-113, 5-(3H-Benzo[e]indole-2-carbonyl)-2-benzyloxy-benzoic acid methyl ester], the IC50 in the data set on Calu-6 (Homo sapiens, Calu-6) is 28500 nM; with HCT-116 (Homo sapiens, HCT-116), above 100000 nM; in the data set on Jurkat (Homo sapiens, Jurkat), 28000 nM; in the data set on MDA-MB-231, above 100000 nM; in the data set on NCI-H82 (setting [3]), above 100000 nM; with U937 (Homo sapiens, U-937), 26800 nM.
In the case of `O=C(c1ccc(OCc2ccccc2)c(C(=O)O)c1)c1cc2c(ccc3ccccc32)[nH]1` [ACT-PFK-114, 5-(3H-Benzo[e]indole-2-carbonyl)-2-benzyloxy-benzoic acidmethanone], the IC50 is above 100000 nM in the data set with Calu-6 (Homo sapiens, Calu-6); above 100000 nM in the data set on HCT-116 (Homo sapiens, HCT-116); above 100000 nM in the data set on Jurkat (Homo sapiens, Jurkat); above 100000 nM with MDA-MB-231; above 100000 nM in the data set with NCI-H82 (setting [3]); above 100000 nM with U937 (Homo sapiens, U-937).
As for `O=C(c1cccc(CO)c1)c1cc2c(ccc3ccccc32)[nH]1` [ACT-PFK-120, (3H-Benzo[e]indol-2-yl)-(3-hydroxymethyl-phenyl)-methanone], the IC50 in the data set on Calu-6 (Homo sapiens, Calu-6) was determined as 55 nM; with Jurkat (Homo sapiens, Jurkat), 155 nM; in the data set on NCI-H82 (setting [3]) it was 270 nM.
Regarding `O=C(c1cc2c(cc(F)c3ccccc32)[nH]1)C1CCCCC1` [ACT-PFK-121, Cyclohexyl-(5-fluoro-3H-benzo[e]indol-2-yl)-methanone], the IC50 was determined as 79 nM in the data set on Calu-6 (Homo sapiens, Calu-6); 115 nM in the data set with Jurkat (Homo sapiens, Jurkat); 335 nM with NCI-H82 (setting [3]).
The like results for `O=C(c1ccc(O)c(F)c1)c1cc2c(cc(F)c3ccccc32)[nH]1` [ACT-PFK-122, (5-Fluoro-3H-benzo[e]indol-2-yl)-(3-fluoro-4-hydroxy-phenyl)-methanone] were, in that order, 70 nM, 235 nM and 320 nM.
`COc1cccc(C(O)c2cc3c(ccc4ccccc43)[nH]2)c1` (stereo not shown) [ACT-PFK-124, (3H-Benzo[e]indol-2-yl)-(3-methoxy-phenyl)-methanol]: the IC50 with Calu-6 (Homo sapiens, Calu-6) was 10400 nM; with Jurkat (Homo sapiens, Jurkat) it was 8800 nM; in the data set on NCI-H82 (setting [3]), 11200 nM.
Regarding `OC(c1ccncc1)c1cc2c(ccc3ccccc32)[nH]1` (stereo not shown) [ACT-PFK-125, (3H-Benzo[e]indol-2-yl)-pyridin-4-yl-methanol], the IC50 in the data set with Calu-6 (Homo sapiens, Calu-6) is 39500 nM; with Jurkat (Homo sapiens, Jurkat), 22700 nM; in the data set with NCI-H82 (setting [3]), 20300 nM.
`O=C(Nc1ccccc1)c1cc2c(ccc3ccccc32)[nH]1` [ACT-PFK-126, 3H-Benzo[e]indole-2-carboxylic acid phenylamide]: the IC50 in the data set on Calu-6 (Homo sapiens, Calu-6) came out at 1100 nM; with Jurkat (Homo sapiens, Jurkat), 850 nM; in the data set with NCI-H82 (setting [3]), 840 nM.
For the compound `COc1cccc(NC(=O)c2cc3c(ccc4ccccc43)[nH]2)c1` [ACT-PFK-127, 3H-Benzo[e]indole-2-carboxylic acid (3-methoxy-phenyl)-amide], the IC50 in the data set with Calu-6 (Homo sapiens, Calu-6) came out at 1020 nM; in the data set with Jurkat (Homo sapiens, Jurkat), 780 nM; in the data set on NCI-H82 (setting [3]), 755 nM.
`CN(C)c1ccc(C(=O)c2cc3c(ccc4ccccc43)[nH]2)cc1` [ACT-PFK-128, (3H-Benzo[e]indol-2-yl)-(4-dimethylamino-phenyl)-methanone]: the IC50 with Calu-6 (Homo sapiens, Calu-6) is above 100000 nM; in the data set on Jurkat (Homo sapiens, Jurkat) it was above 100000 nM; in the data set with NCI-H82 (setting [3]), above 100000 nM.
As for `COc1cc(C(=O)c2cc3c(ccc4ccccc43)[nH]2)ccc1N` [ACT-PFK-129, (4-Amino-3-methoxy-phenyl)-(3H-benzo[e]indol-2-yl)-methanone], the half-maximal inhibitory concentration (IC50) in the data set with Calu-6 (Homo sapiens, Calu-6) is 355 nM; in the data set with Jurkat (Homo sapiens, Jurkat) it was 230 nM; in the data set with NCI-H82 (setting [3]), 370 nM.
Turning to `COc1cc(C(=O)c2cc3c(cc(O)c4ccccc43)[nH]2)ccc1N` [ACT-PFK-130, (4-Amino-3-methoxy-phenyl)-(5-hydroxy-3H-benzo[e]indol-2-yl)-methanone], the IC50 in the data set on Calu-6 (Homo sapiens, Calu-6) was determined as 1650 nM; in the data set on Jurkat (Homo sapiens, Jurkat), 1130 nM; in the data set with NCI-H82 (setting [3]), 1450 nM.
For `COc1cc(C(=O)c2cc3c(cc(OC)c4ccccc43)[nH]2)ccc1N` [ACT-PFK-131, (4-Amino-3-methoxy-phenyl)-(5-methoxy-3H-benzo[e]indol-2-yl)-methanone], the IC50 in the data set on Calu-6 (Homo sapiens, Calu-6) was above 100000 nM; in the data set on Jurkat (Homo sapiens, Jurkat), above 100000 nM; in the data set on NCI-H82 (setting [3]), above 100000 nM.
On to `CS(=O)(=O)Nc1ccc(C(=O)c2cc3c(ccc4ccccc43)[nH]2)cc1` [ACT-PFK-133, N-[4-(3H-Benzo[e]indole-2-carbonyl)-phenyl]-methanesulfonamide], for which the IC50 in the data set on Calu-6 (Homo sapiens, Calu-6) turned out to be 40800 nM; in the data set on Jurkat (Homo sapiens, Jurkat), 2350 nM; with NCI-H82 (setting [3]), 11900 nM.
Consider `Nc1ccc(NC(=O)c2cc3c(ccc4ccccc43)[nH]2)cc1` [ACT-PFK-134, 3H-Benzo[e]indole-2-carboxylic acid (4-amino-phenyl)-amide], for which the IC50 in the data set on Calu-6 (Homo sapiens, Calu-6) amounted to 2450 nM; with Jurkat (Homo sapiens, Jurkat), 3300 nM; in the data set on NCI-H82 (setting [3]) it was 3450 nM.

The term IC50 denotes the point on the concentration scale where inhibition reaches its midpoint.
